Data as given in PMC11756387, “Improving the solubility of pseudo-hydrophobic chemicals through co-crystal formulation” (PNAS Nexus, 2025).
In brackets after ≈: the same amount, converted by molar mass.

What was measured:
AD tau = AD tau (Homo sapiens, UniProt P10636); format: cell-based
physchem [1] = settings: pH 7.4
in vitro [2] = settings: male, mouse, microsomes
[3] = buffer
in vitro [4] = settings: human, microsomes
physchem [5] = settings: water, thermodynamic from solid
[6] = Kinetic solubility in simulated intestinal fluid (SIF); settings: pH 6.8

Chain of AD tau (P10636 623-695 limits assumed): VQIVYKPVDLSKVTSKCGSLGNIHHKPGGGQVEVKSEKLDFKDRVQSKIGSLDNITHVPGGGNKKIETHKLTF

For `[Ca+2].[OH-].[OH-]` [Ca(OH)2, calcium hydroxide], which “Inhibitory activity of counterions toward tau seeding” value (AD tau) is on record?
The value was “neither TEA nor Ca(OH)2 exhibited inhibitory activity”.

Which results are given for `O=C1c2c(O)cc(O)cc2O[C@H](c2cc(O)c(O)c(O)c2)[C@H]1O` [DHM, dihydromyricetin]?
logD at 1 h (physchem [1]): 0.63; half-life at 1 µM (in vitro [2]): 1.57 h; Fraction remaining dissolved in aqueous solution after centrifugation [3]: about 20%; half-life at 1 µM (in vitro [4]): 3.38 h; remaining at 1 h, 1 µM (in vitro [4]): ~100%; solubility thermodynamic (physchem [5]): 650 µg/mL (≈ 2030 µM)

With `O=C(O)Cc1ccccc1Nc1c(Cl)cccc1Cl` [diclofenac] as the molecule, how does the solubility kinetic at 2 h [6] read?
The solubility kinetic at 2 h was ~300 µM (≈ 88.8 µg/mL).
